Measurements from the NIST ThermoML archive (doi:10.1016/j.jct.2008.06.008).
Values joined by “and” are separate entries in the source; they are usually repeats but may differ in a detail not shown here. Identical values can stand only once. ± gives the expanded uncertainty stated by the source.

Assay: molar heat capacity at constant pressure
Conditions: 298.15 K; 101.33 kPa; Liquid; Large sample (1 g) DSC

[2H]C([2H])([2H])C(=O)C([2H])([2H])[2H] [(D6)-2-propanone]
molar heat capacity at constant pressure: 134.94 ± 2.7 J/K/mol and 133.6 ± 2.7 J/K/mol

[2H]C([2H])([2H])S(=O)C([2H])([2H])[2H] [(methyl sulfoxide)-d6]
molar heat capacity at constant pressure: 165.76 ± 3.3 J/K/mol and 163.87 ± 3.3 J/K/mol

[2H]C(=O)N(C([2H])([2H])[2H])C([2H])([2H])[2H] [N,N-dimethylformamide-d7]
molar heat capacity at constant pressure: 160.5 ± 3.2 J/K/mol and 159.47 ± 3.2 J/K/mol

CC(C)=O [acetone]
molar heat capacity at constant pressure: 122.74 ± 2.5 J/K/mol and 120.73 ± 2.4 J/K/mol

[2H]C([2H])([2H])C#N [acetonitrile-d3]
molar heat capacity at constant pressure: 95.74 ± 1.9 J/K/mol and 95.02 ± 1.9 J/K/mol

CC#N [acetonitrile]
molar heat capacity at constant pressure: 89.62 ± 1.8 J/K/mol and 88.57 ± 1.8 J/K/mol

[2H]c1c([2H])c([2H])c([2H])c([2H])c1[2H] [benzene-d6]
molar heat capacity at constant pressure: 152.18 ± 3 J/K/mol and 149.82 ± 3 J/K/mol

c1ccccc1 [benzene]
molar heat capacity at constant pressure: 133.82 ± 2.7 J/K/mol and 132.11 ± 2.6 J/K/mol

[2H]C(Cl)(Cl)Cl [chloroform-d]
molar heat capacity at constant pressure: 114.94 ± 2.3 J/K/mol and 111.98 ± 2.2 J/K/mol

[2H]C1([2H])C([2H])([2H])C([2H])([2H])C([2H])([2H])C([2H])([2H])C1([2H])[2H] [cyclohexane-d12]
molar heat capacity at constant pressure: 185.6 ± 3.7 J/K/mol and 182.57 ± 3.6 J/K/mol

C1CCCCC1 [cyclohexane]
molar heat capacity at constant pressure: 154.34 ± 3.1 J/K/mol and 150.73 ± 3 J/K/mol

[2H]C([2H])(Cl)Cl [dichloromethane-d2]
molar heat capacity at constant pressure: 103.08 ± 2.1 J/K/mol and 101.49 ± 2 J/K/mol

ClCCl [dichloromethane]
molar heat capacity at constant pressure: 97.97 ± 2 J/K/mol and 95.61 ± 1.9 J/K/mol

C[S+](C)[O-] [dimethyl sulfoxide]
molar heat capacity at constant pressure: 150.74 ± 3 J/K/mol and 149.05 ± 3 J/K/mol

CN(C)C=O [dimethylformamide]
molar heat capacity at constant pressure: 145.78 ± 2.9 J/K/mol and 144.02 ± 2.9 J/K/mol

[2H]C([2H])([2H])O [methanol-d3]
molar heat capacity at constant pressure: 86.07 ± 1.7 J/K/mol and 84.91 ± 1.7 J/K/mol

[2H]OC([2H])([2H])[2H] [methanol-d4]
molar heat capacity at constant pressure: 89.03 ± 1.8 J/K/mol and 87.75 ± 1.8 J/K/mol

CO [methanol]
molar heat capacity at constant pressure: 80.58 ± 1.6 J/K/mol and 79.07 ± 1.6 J/K/mol

[2H]c1c([2H])c([2H])c(C([2H])([2H])[2H])c([2H])c1[2H] [toluene-d8]
molar heat capacity at constant pressure: 176.77 ± 3.5 J/K/mol and 174.28 ± 3.5 J/K/mol

Cc1ccccc1 [toluene]
molar heat capacity at constant pressure: 154.75 ± 3.1 J/K/mol and 152.53 ± 3 J/K/mol

ClC(Cl)Cl [trichloromethane]
molar heat capacity at constant pressure: 112.71 ± 2.2 J/K/mol and 110.74 ± 2.2 J/K/mol
